# Patent US20250312469A1 (CANGET BIOTEKPHARMA, priority 2024, published 2025)
# Tests used:
# [1] = assay type: physicochemical; conditions: solid state of powder
# Procedure: Laboratory XRPD patterns from the samples will be collected at 25° C. The diffraction data were collected over the angular range of 2θ=3°−40° with a step size of 2θ=0.02° and accounting time of 0.12 s/step.
# [2] = test system: Panc-1, BxPC-3 and MiaPaca-2 cells; experiment: Cell monolayer wound healing test; assay type: cell-based, human
# Procedure: Representative cell migration wound healing images were taken at zero hour and wound healing for 48-72 hours.
# [3] = test system: human hepatocytes; experiment: Cell viability (MTS) after CYP induction treatment
# Procedure: Vehicle controls were treated in parallel with hepatocyte culture medium. […] (2) After the CYP induction treatment, the cells were used for a cell viability assay. […] The absorbance of formazan, which is proportional to the number of viable cells, was measured spectrophotometrically using the CellTiter 96 AQueous ONE Solution Cell Proliferation Assay. […] (3) Total RNA was isolated from the treated cells using the RNeasy mini kit (Qiagen, Valencia, CA, USA) and treated with RNase-free DNase (Qiagen) following the manufacturer's protocols. The concentration of RNA was determined using a Qubit Fluorometer with a Qubit RNA HS assay kit (Invitrogen). cDNA was synthesized from up to 1 μg of the total RNA harvested from the cells using a QuantiTect RT kit (Qiagen). Analysis of gene expression by qPCR was performed using the LightCycler 480 System (Roche Diagnostics Corporation, Indianapolis, IN, USA).
compound,measurement,setting,value
CCC1(O)C(=O)OCc2c1cc1n(c2=O)Cc2cc3cc4c(cc3nc2-1)OCO4 (stereo not drawn) [FL118],XRPD,[1],Weak crystal
same,cell migration wound healing,[2],exhibited cell migration wound healing defect
same,% of Vehicle-treated Cells,"[3]; donor 1, 0.01 μM",91%
same,Formazan Absorbance Mean,"[3]; donor 1, 0.01 μM",1.48
same,% of Vehicle-treated Cells,"[3]; donor 1, 0.1 μM",73%
same,Formazan Absorbance Mean,"[3]; donor 1, 0.1 μM",1.20
same,% of Vehicle-treated Cells,"[3]; donor 1, 1 μM",31%
same,Formazan Absorbance Mean,"[3]; donor 1, 1 μM",0.512
same,cytotoxicity,"[3]; donor 1, 0.1 and 1 μM",dose-dependent cytotoxicity
same,% of Vehicle-treated Cells,"[3]; donor 2, 0.001 μM",103%
same,Formazan Absorbance Mean,"[3]; donor 2, 0.001 μM",1.53
same,% of Vehicle-treated Cells,"[3]; donor 2, 0.005 μM",101%
same,Formazan Absorbance Mean,"[3]; donor 2, 0.005 μM",1.51
same,% of Vehicle-treated Cells,"[3]; donor 2, 0.01 μM",99%
same,Formazan Absorbance Mean,"[3]; donor 2, 0.01 μM",1.48
same,cytotoxicity,"[3]; donor 2, 0.001 to 0.01 μM",No cytotoxicity
same,% of Vehicle-treated Cells,"[3]; donor 3, 0.025 μM",94%
same,Formazan Absorbance Mean,"[3]; donor 3, 0.025 μM",1.63
same,% of Vehicle-treated Cells,"[3]; donor 3, 0.05 μM",104%
same,Formazan Absorbance Mean,"[3]; donor 3, 0.05 μM",1.80
same,cytotoxicity,"[3]; donor 3, 0.025 and 0.05 μM",did not show cytotoxicity
